Test results from PubChem BioAssay (NCI).
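Tested at 5 concentrations; 48 h exposure; 96-well plates; endpoints linearly interpolated, else capped at highest concentration. At the GI50, growth is halved. TGI denotes the concentration required for complete inhibition of growth.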

How the values were obtained:
Experiment in all cases: growth of human tumour cells (NCI), 48 h
OVCAR-5 ovarian = tested on: OVCAR-5 ovarian
HCT-116 colon = tested on: HCT-116 colon
OVCAR-4 ovarian = tested on: OVCAR-4 ovarian
SN12C renal = tested on: SN12C renal
HL-60(TB) leukemia = tested on: HL-60(TB) leukemia
CCRF-CEM leukemia = tested on: CCRF-CEM leukemia
OVCAR-3 ovarian = tested on: OVCAR-3 ovarian
UO-31 renal = tested on: UO-31 renal
SNB-19 CNS = tested on: SNB-19 CNS
RXF 393 renal = tested on: RXF 393 renal

| SMILES | GI50 (OVCAR-5 ovarian) | TGI (OVCAR-5 ovarian) | GI50 (HCT-116 colon) | TGI (HCT-116 colon) | GI50 (OVCAR-4 ovarian) | TGI (OVCAR-4 ovarian) | GI50 (SN12C renal) | TGI (SN12C renal) | GI50 (HL-60(TB) leukemia) | TGI (HL-60(TB) leukemia) | GI50 (CCRF-CEM leukemia) | TGI (CCRF-CEM leukemia) | GI50 (OVCAR-3 ovarian) | TGI (OVCAR-3 ovarian) | GI50 (UO-31 renal) | TGI (UO-31 renal) | TGI (SNB-19 CNS) | TGI (RXF 393 renal) | GI50 (RXF 393 renal) | GI50 (SNB-19 CNS) |
| --- | --- | --- | --- | --- | --- | --- | --- | --- | --- | --- | --- | --- | --- | --- | --- | --- | --- | --- | --- | --- |
| CCCCCCCCCCCCCCCC[N+]1(CC)CCCC1 | 439 nM | 1810 nM | 361 nM | 1400 nM | 315 nM | 2250 nM | 1100 nM | 2440 nM | 339 nM | 1140 nM | 379 nM | 1840 nM | 478 nM | 1650 nM | 2790 nM | 11600 nM |  |  |  |  |
| CC(=O)NC1C(OCc2ccccc2)OC(COC(=O)CCCCCCCCCCNC(=O)c2cccc3c(=O)c4ccccc4[nH]c23)C(O)C1OC(C)C(=O)NC(C)C(=O)NC(CCC(N)=O)C(N)=O (stereo not drawn) |  | > 100000 nM |  | > 100000 nM |  | > 100000 nM |  | > 100000 nM |  | > 100000 nM |  |  |  | > 100000 nM |  | > 100000 nM | > 100000 nM |  |  |  |
| CC(C)c1ccc(/C=C(\NC(=O)c2ccccc2)c2nc3ccccc3[nH]2)cc1 |  | > 100000 nM |  | > 100000 nM |  | > 100000 nM |  | > 100000 nM |  |  |  | > 100000 nM |  | > 100000 nM |  | > 100000 nM | > 100000 nM | > 100000 nM |  |  |
| COc1cccc(-c2nn(-c3ccccc3)cc2-c2ccnc(NCCNC(=O)Nc3ccc(Cl)c(Cl)c3)c2)c1 | 2250 nM | 10100 nM | 2170 nM | 5330 nM | 3250 nM | 16200 nM | 2390 nM | 5960 nM | 2430 nM | 6850 nM |  |  | 2590 nM | 8200 nM | 1440 nM | 5030 nM | 9800 nM | 3150 nM | 1200 nM | 2630 nM |
| Clc1ccc2c(Cl)ncnc2c1 |  | > 100000 nM |  | > 100000 nM |  | > 100000 nM |  | > 100000 nM |  | > 100000 nM |  | > 100000 nM |  | > 100000 nM |  | > 100000 nM | > 100000 nM |  |  |  |
| COc1ccc(C2=CC(c3cc(OC)c(OC)c(OC)c3)n3ncnc3N2)cc1 (stereo not drawn) | 502 nM | > 100000 nM | 40.1 nM | > 100000 nM | 391 nM | 39500 nM | 141 nM | > 100000 nM | 25.2 nM | 61.2 nM | 42.5 nM | > 100000 nM | 28.6 nM | 76.4 nM | 10000 nM | 66400 nM | > 100000 nM |  |  | 67.2 nM |
